Assay results from patent publication US9630958B2, “Triazine compounds” (Sphaera Pharma Pte. Ltd., priority 2012, dated 2017).

Tests used:
[1] = molecular target: T1, Recombinant mTOR (FRAP1) (Homo sapiens, UniProt P42345); assay: mTOR in vitro kinase assay (TR-FRET, phosphorylation of GFP-4E-BP1); format: biochemical; conditions: for inhibition at 1 µM: 1 uM compound, read-out: mTOR % Inhib@1 uM; for IC50: 8 μM ATP, 400 nM GFP-4E-BP1
T1 construct: purchased Invitrogen
Method: Compounds were evaluated for mTOR activity using an in vitro kinase assay.
mTOR activity is measured in vitro by determining the level of phosphorylation of the protein substrate 4EBP-1. The phosphorylation of GFP-4E-BP1 at threonine residue is recognized by Ab Tb-Anti-p4EBP1, which results in time resolved fluorescence energy transfer (TR-FRET) between GFP and Terbium in the Ab-Protein complex.
Recombinant mTOR (FRAP1), Kinase reaction buffer, GFP-4E-BP1 and LanthaScreen Tb-anti-4E-BP1 (pThr46), TR FRET dilution buffer, Kinase Quench Buffer were obtained from Invitrogen.
Kinase reactions were performed in 10 μl volume in Corning white 384 well plates. […] The reaction was initiated by the addition of substrate (GFP-4E-BP1) and ATP at a final conc. of 400 nM and 8 μM ATP in the reaction respectively. The kinase reaction was allowed to proceed for 1 hour at room temperature before a 10 μL preparation of kinase quench buffer and Tb-labeled Antibody in TR-FRET dilution buffer was added. The final concentration of the antibody in the assay well is 2 nM and the final concentration of EDTA is 10 mM. The plate was incubated at room temperature for 1 h.
(§1) FRET signal was read in Envision Multilabel Reader with the following filters:
Excitation-330 nm and Emission 486 nm (donor) and 520 nm (acceptor).
TR FRET Ratio (Fluorescence 520 nm/Fluorescence 486 nm) was plotted against the concentration of inhibitor and data was fit to Non Linear Regression curve fit (sigmoidal dose response curve with variable slope-four parameters) using Graph Pad Prism 5.

[2] = molecular target: T2, PI3 Kinase alpha (p110 alpha/p85 alpha) (Homo sapiens, UniProt P42336); assay: PI3K TR-FRET assay (Transcreener ADP2); format: biochemical; conditions: for IC50: PI3K alpha, 1 μM ATP, 50 μM PIP2; for inhibition at 1 µM: 1 uM compound, read-out: PI3K % Inhib@1 uM
T2 construct: purchased Invitrogen
Method: Enzymatic activity of PI3K alpha was measured using Time resolved Fluorescence resonance energy transfer (TR-FRET) assay. This assay utilizes ADP detection as a means to screen inhibitor potency of compounds. The Transcreener ADP2 TR-FRET Red Assay is a competitive immunoassay for ADP with a far-red, TR-FRET readout and it has been used for this purpose. The assay can be used for any enzyme class that produces ADP (Kinases, ATPases). It consists of ADP HiLyte647 Tracer, ADP^2 Antibody-Tb conjugate (800 nM), stop & detect buffer, 5 mM ATP, 5 mM ADP. The ADP HiLyte647 Tracer is bound to an ADP^2 Antibody-Tb conjugate. The excitation of the terbium complex in the UV range results in energy transfer to the tracer and emission at a higher wavelength after a time delay ADP produced by the target enzyme displaces the tracer which causes decrease in TR-FRET.
The reaction buffer used for the assay was 50 mM HEPES, pH 7.4.3 mM MgCl2, 0.05% CHAPS, 50 mM NaCl, 2 mM DTT, 1 mM EGTA. PI3 Kinase alpha (p110 alpha/p85 alpha) and PIP2 Substrate (diC8,) were procured from Invitrogen and Echelon respectively.
Kinase reactions were performed in 10 μl volume in Corning white 384 well plates. […] Reaction was initiated by the addition of substrate (PIP2) and ATP at final conc. of 50 μM and 1 μM ATP in the reaction respectively. Kinase reactions were allowed to proceed for 1 hour at room temperature before a 10 μL preparation of Transcreener ADP detection mix was added. Plate was incubated at room temperature for 1 hr. ADP-ATP standard curves were also prepared.
as §1
Excitation-330 nm and Emission 615 nm (donor) and 665 nm (acceptor). TR FRET Ratio (Fluorescence 665 nm/Fluorescence 615 nm) was converted to amount of product formed using the standard curve generated. Percentage inhibition was calculated and plotted against the concentration of inhibitor and data was fit to Non Linear Regression curve fit (sigmoidal dose response curve with variable slope-four parameters) using Graph pad prism 5 and IC50 was calculated for the compound.

T2 sequence (P42336 whole entry): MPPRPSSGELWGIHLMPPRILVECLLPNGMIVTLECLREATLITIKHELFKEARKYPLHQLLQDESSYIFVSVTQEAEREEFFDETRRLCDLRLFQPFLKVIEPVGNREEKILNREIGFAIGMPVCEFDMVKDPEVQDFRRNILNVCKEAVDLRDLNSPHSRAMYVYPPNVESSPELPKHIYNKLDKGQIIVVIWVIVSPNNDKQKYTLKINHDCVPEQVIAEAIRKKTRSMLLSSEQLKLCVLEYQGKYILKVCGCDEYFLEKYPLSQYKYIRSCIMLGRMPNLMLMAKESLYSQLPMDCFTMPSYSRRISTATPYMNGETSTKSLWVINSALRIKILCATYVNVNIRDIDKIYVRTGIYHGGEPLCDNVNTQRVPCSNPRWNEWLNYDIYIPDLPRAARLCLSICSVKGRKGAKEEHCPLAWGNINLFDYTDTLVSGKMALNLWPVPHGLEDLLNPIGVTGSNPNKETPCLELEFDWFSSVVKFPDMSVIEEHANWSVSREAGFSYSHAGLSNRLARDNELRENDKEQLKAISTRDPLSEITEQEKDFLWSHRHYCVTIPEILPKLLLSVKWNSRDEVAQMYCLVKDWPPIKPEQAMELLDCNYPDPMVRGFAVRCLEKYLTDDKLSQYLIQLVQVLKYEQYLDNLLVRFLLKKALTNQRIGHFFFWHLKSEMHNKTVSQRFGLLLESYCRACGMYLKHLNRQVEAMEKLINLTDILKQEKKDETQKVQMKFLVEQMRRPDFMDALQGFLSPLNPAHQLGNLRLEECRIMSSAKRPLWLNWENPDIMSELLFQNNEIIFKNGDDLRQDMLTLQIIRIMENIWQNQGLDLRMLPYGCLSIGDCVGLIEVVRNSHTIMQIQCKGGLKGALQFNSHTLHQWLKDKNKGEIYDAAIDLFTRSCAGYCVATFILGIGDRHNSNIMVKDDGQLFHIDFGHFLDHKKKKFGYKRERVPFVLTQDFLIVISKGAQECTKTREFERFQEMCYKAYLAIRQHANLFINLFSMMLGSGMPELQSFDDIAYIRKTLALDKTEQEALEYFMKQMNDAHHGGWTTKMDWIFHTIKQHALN
T2 sequence (P27986 whole entry partner): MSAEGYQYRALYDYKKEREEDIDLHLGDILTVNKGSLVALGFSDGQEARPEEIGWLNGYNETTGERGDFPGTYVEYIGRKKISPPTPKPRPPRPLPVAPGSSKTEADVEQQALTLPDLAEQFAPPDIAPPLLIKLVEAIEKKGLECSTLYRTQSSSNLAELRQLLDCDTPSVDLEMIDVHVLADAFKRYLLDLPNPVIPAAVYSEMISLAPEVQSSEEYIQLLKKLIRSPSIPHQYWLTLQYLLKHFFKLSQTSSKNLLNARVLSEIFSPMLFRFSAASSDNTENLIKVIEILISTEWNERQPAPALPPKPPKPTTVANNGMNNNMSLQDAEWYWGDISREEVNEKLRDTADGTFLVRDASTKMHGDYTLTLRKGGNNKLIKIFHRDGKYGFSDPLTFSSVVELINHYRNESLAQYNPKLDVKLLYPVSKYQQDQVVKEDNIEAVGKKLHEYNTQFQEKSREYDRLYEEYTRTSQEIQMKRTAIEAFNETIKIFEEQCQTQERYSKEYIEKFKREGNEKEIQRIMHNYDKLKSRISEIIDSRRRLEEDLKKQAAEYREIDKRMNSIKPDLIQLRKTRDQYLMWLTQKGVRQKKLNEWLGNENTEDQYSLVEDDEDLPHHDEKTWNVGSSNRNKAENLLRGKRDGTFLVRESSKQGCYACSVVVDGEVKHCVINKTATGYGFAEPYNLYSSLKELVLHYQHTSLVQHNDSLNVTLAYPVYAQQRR
T1 sequence (P42345 1360-2549 limits assumed): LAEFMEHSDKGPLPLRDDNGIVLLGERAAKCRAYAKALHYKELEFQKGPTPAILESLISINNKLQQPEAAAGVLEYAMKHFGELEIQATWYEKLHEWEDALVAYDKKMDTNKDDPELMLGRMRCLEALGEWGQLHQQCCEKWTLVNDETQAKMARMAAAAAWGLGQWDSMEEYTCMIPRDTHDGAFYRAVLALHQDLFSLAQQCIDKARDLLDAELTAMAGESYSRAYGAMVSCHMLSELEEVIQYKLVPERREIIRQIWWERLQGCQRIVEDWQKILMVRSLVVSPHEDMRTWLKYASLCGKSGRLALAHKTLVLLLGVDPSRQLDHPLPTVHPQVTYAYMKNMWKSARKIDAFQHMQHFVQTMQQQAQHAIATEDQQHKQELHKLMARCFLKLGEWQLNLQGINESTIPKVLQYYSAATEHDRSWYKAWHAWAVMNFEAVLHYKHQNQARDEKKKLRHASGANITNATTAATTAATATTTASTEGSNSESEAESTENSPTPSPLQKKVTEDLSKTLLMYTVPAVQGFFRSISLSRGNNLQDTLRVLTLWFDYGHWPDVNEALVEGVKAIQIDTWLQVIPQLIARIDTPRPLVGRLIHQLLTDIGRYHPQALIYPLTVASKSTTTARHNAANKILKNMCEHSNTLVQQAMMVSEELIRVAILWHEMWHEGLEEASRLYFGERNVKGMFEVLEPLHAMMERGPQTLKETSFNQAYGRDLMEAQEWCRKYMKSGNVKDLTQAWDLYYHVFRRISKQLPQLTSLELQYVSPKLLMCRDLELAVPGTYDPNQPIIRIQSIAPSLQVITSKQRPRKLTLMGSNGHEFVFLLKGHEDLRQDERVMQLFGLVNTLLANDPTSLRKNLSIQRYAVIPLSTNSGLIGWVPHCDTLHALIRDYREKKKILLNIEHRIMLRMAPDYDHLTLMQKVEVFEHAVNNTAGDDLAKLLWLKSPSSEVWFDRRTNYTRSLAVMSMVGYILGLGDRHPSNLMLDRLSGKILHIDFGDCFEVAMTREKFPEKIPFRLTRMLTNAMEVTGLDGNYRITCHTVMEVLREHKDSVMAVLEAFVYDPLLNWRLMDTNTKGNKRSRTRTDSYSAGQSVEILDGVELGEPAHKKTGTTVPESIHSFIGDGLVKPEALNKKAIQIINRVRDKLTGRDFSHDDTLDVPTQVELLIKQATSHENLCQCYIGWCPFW

Compound | inhibition at 1 µM [1] [%] | IC50 [1] [µM] | IC50 [2] [µM] | inhibition at 1 µM [2] [%]
CN(C)C(=O)N1CCC(Oc2nc(-c3ccc(N)nc3)nc(N3CCOCC3)n2)CC1 [Compound 10021, 4-(4-(6-aminopyridin-3-yl)-6-morpholino-1,3,5-triazin-2-yloxy)-N,N-dimethylpiperidine-1-carboxamide] | > 50 | < 1 | < 1 | 
CN(C)C(=O)c1ccc(Oc2nc(-c3cnc(N)s3)nc(N3CCOCC3)n2)c(F)c1 [Compound 10022, 4-(4-(2-aminothiazol-5-yl)-6-morpholino-1,3,5-triazin-2-yloxy)-3-fluoro-N,N-dimethylbenzamide] | > 50 | < 1 | < 1 | 
CN(C)C(=O)c1ccc(Oc2nc(-c3cnc(N)s3)nc(N3CCOc4ccccc43)n2)cc1 [Compound 10029, 4-(4-(2-aminothiazol-5-yl)-6-(2H-benzo[b][1,4]oxazin-4(3H)-yl)-1,3,5-triazin-2-yloxy)-N,N-dimethylbenzamide] | > 50 | < 1 | > 1 | < 50
CN(C)C(=O)c1ccc(Oc2nc(-c3cnc(N)s3)nc(N3C[C@H]4C[C@@H](C3)O4)n2)cc1 [Compound 10046, 4-(4-(2-aminothiazol-5-yl)-6-((1R,5S)-6-oxa-3-azabicyclo[3.1.1]heptan-3-yl)-1,3,5-triazin-2-yloxy)-N,N-dimethylbenzamide] | < 50 |  |  | < 50
CN(C)C(=O)[C@H]1CC[C@H](Oc2nc(-c3ccc(N)nc3)nc(N3CCOCC3)n2)CC1 [Compound 10049, (1r,4r)-4-(4-(6-aminopyridin-3-yl)-6-morpholino-1,3,5-triazin-2-yloxy)-N,N-dimethylcyclohexanecarboxamide] | > 50 | < 1 | < 1 | 
CN(C)C(=O)c1ccc(Oc2nc(-c3ccc(N)nc3)nc(N3[C@@H]4CC[C@H]3COC4)n2)cc1 [Compound 10050, 4-(4-(6-aminopyridin-3-yl)-6-((1R,5S)-3-oxa-8-azabicyclo[3.2.1]octan-8-yl)-1,3,5-triazin-2-yloxy)-N,N-dimethylbenzamide] | > 50 | < 1 | > 1 | 
C[C@H]1COCCN1c1nc(Oc2ccc(C(=O)N(C)C)cc2F)nc(-c2ccc3[nH]ncc3c2)n1 [Compound 10051, (S)-4-((4-(1H-indazol-5-yl)-6-(3-methylmorpholino)-1,3,5-triazin-2-yl)oxy)-3-fluoro-N,N-dimethylbenzamide] | > 50 | < 1 | > 1 | 
C[C@H]1OCCN(c2nc(Oc3ccc(C(=O)N(C)C)cc3F)nc(-c3cnc(N)s3)n2)[C@H]1C [Compound 10052, 4-((4-(2-Aminothiazol-5-yl)-6-((2R,3S)-2,3-dimethylmorpholino)-1,3,5-triazin-2-yl)oxy)-3-fluoro-N,N-dimethylbenzamide] |  | < 1 | < 1 | > 50
C[C@@H]1OCCN(c2nc(Oc3ccc(C(=O)N(C)C)cc3F)nc(-c3cnc(N)s3)n2)[C@H]1C [Compound 10053, 4-((4-(2-Aminothiazol-5-yl)-6-((2S,3S)-2,3-dimethylmorpholino)-1,3,5-triazin-2-yl)oxy)-3-fluoro-N,N-dimethylbenzamide] |  | < 1 | > 1 | 
C[C@@H]1CN(c2nc(Oc3ccc(C(=O)N(C)C)cc3F)nc(-c3cnc(N)s3)n2)[C@@H](C)CO1 [Compound 10057, 4-((4-(2-Aminothiazol-5-yl)-6-((2R,5S)-2,5-dimethylmorpholino)-1,3,5-triazin-2-yl)oxy)-3-fluoro-N,N-dimethylbenzamide] |  | < 1 |  | < 50
C[C@H]1COCCN1c1nc(Oc2ccc(C(=O)N(C)C)cc2F)nc(-c2ccc(N)nc2)n1 [Compound 10058, (S)-4-((4-(6-Aminopyridin-3-yl)-6-(3-methylmorpholino)-1,3,5-triazin-2-yl)oxy)-3-fluoro-N,N-dimethylbenzamide] |  | < 1 | < 1 | 
